# Test results taken from EP2710893A1, “Methods of treating autism spectrum disorders and compositions for same” (Theta Biomedical Consulting&development Co., Inc, priority 2009, dated 2011).
# Key:
# mast cells = test: Inhibition of mast cells; assay type: cell-based; conditions: Mast cell
# [1] = test system: brain blood vessel leakage; test: Evans blue extravasation (brain blood vessel leakage) in mice; assay type: in vivo
# Method: Male BALB/6 mice (6 weeks old, Jackson Laboratories, Bar Harbor, ME) were injected in their tail vein with 0.2 ml of Evans blue (0.4%). Binding of Evans blue to the albumin found in the blood prevents Evans blue from escaping the circulation and constitutes a good marker from extravasation in brain parenchyma.
# Brain blood vessel leakage was assessed with Evans blue extravasation at 2 hr following Evans blue and 30 min after intraperitoneal injection of NT. Mice were anesthetized with a single intraperitoneal injection of ketamine/xylazine ([…]), an intracardiac catheter was inserted in the left ventricle, blood was withdrawn, and 10 ml normal saline was administered intracardially to wash any Evans blue from the systemic circulation. The mice were then decapitated and the whole brain was removed. For brain extravasated Evans blue measurements, the brains were first weighed and the Evans blue was then extracted in 1 ml of N,N-dimethylformamide overnight at 55 °C and the optical density was measured at 620 nm using a PerkinElmer Luminescence Spectrophotometer (Perkin Elmer, Norwalk, CT). EB concentration was calculated using a standard curve and values were normalized to the tissue weight and expressed as arbitrary units/mg of tissue. Five animals per group were estimated to be sufficient for significant differences given the variability (<50%) observed. Results of Evans blue/mg tissue were expressed as mean ± SD of percent change from control. This statistical analysis was chosen because it permits the experimental results to be compared to their own control and avoids variability from experiment to experiment. Values were then compared using the non-parametric Mann-Whitney U test. Significance is denoted by p<0.05. In order to induce brain blood vessel leakage, the mice were either treated only with an intraperitoneal injection (0.5 ml) of NT (500 nmol/kg body weight) or first pretreated with the flavonoid luteolin (40 mg/kg body weight) mixed in olive kernel extract to permit solubilization and increased absorption of the lipid-soluble luteolin. The mice not treated with luteolin were pretreated the same way only with the vehicle in order to keep the conditions similar [olive kernel extract, obtained from Minerva Edible Oils, Athens, Greece (http://www.minerva.com.gr/)]. […] When the mice were treated with both IL-33 (1 microg/mouse) and NT, brain leakage was even greater (Fig. 3); IL-33 alone had no effect. Pretreatment with the same amount of luteolin as before inhibited brain blood vessel leakage by 50% (Fig. 3). Using more luteolin could inhibit the synergistic effect of IL-33 and NT.
molecule,measurement,setting,value
O=c1c(O)c(-c2ccc(O)c(O)c2)oc2cc(O)cc(O)c12 [Quercetin],inhibition at 10 µM,mast cells,80%
O=c1cc(-c2ccc(O)c(O)c2)oc2cc(O)cc(O)c12 [luteolin],inhibition of brain blood vessel leakage,"[1]; Figure 3 legend, intraperitoneal luteolin 10 min prior to injection of IL-33 plus NT",inhibited
same,inhibition of brain blood vessel leakage,"[1]; NT-induced leakage, pretreatment with luteolin 40 mg/kg body weight mixed in olive kernel extract",completely inhibited
same,inhibition of brain blood vessel leakage,"[1]; leakage induced by IL-33 (1 microg/mouse) and NT, pretreatment with luteolin 40 mg/kg body weight",50%
neurotensin [NT],increase in brain blood vessel leakage,"[1]; intraperitoneal injection of NT 500 nmol/kg body weight, Evans blue extravasation 30 min after NT, percent change from control",150%
